# In patent US20240391882A1 (Mirati Therapeutics, Inc., priority 2023, published 2024):
# Columns and labels:
# Format in all cases: cell-based
# [1] = tested on: T47D (PI3Kα H1047R mutant) cells; assay: Cell viability (CellTiter-Glo 2.0) in T47D cells; details: Homo sapiens, T47D, 72 h, approximately 72 hours
# How it was run: (§1)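 IC50 values derive from four-parameter fits of CellTiter-Glo luminescence expressed as percent of vehicle control. Cells (T47D or SKBR3) were plated at 1000/well the day before dosing and incubated about 72 h at 37° C with a 10-point, 1:4 series starting at 10 μm.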
# [2] = tested on: SKBR3 (PI3Kα wild type) cells; assay: Cell viability (CellTiter-Glo 2.0) in SKBR3 cells; details: Homo sapiens, SK-BR-3; SKBR3 (PI3Kα wild type) cells, approximately 72 hours, CellTiter-Glo 2.0; read-out: SKBR3 (WT) Viability IC50
# How it was run: as §1
# [3] = tested on: pAKT in T47D (PI3Kα H1047R mutant) cells; assay: Inhibition of pAKT (alphaLISA Surefire Ultra AKT 1/2/3 pS473) in T47D cells; details: Homo sapiens; T47D (PI3Kα H1047R mutant) cells, 24 hr compound incubation, alphaLISA pS473; read-out: T47D (H1047R) pAKT 24 hr (IC50)
# How it was run: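 AlphaLISA read-out of AKT pS473 in lysates after roughly 24 h compound exposure at 37° C in HBSS. Ten concentrations, 1:4 dilutions from a 10.4 μm top dose. Percent of control uses alpelisib at 3.125 μm as background and DMSO as vehicle; four-parameter curve gives IC50.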
IC50 [1] [nM],IC50 [2] [nM],IC50 [3] [nM],SMILES
89,> 10000,1.3,"Cc1cc([C@@H](C)Nc2ccc(Cl)nc2C(=O)O)c2nc(N3CC4CCC4(F)C3)c(C#N)nc2c1 (single isomer, unassigned) [Example 244B]"
61.4,> 10000,2.2,"CO[C@@H]1CCCN(c2nc3c([C@@H](C)Nc4ccc(Cl)nc4C(=O)O)cc(C)cc3nc2C#N)C1 [Example 196B, 6-chloro-3-(((R)-1-(2-cyano-3-((R)-3-methoxypiperidin-1-yl)-7-methylquinoxalin-5-yl)ethyl)amino)picolinic acid]"
85,> 10000,3.6,"Cc1cc([C@@H](C)Nc2ccc(Cl)nc2C(=O)O)c2nc(N3CCC(F)(F)[C@H](CO)C3)c(C#N)nc2c1 (single isomer, unassigned) [Example 234B]"
50,> 10000,0.52,"Cc1cc([C@@H](C)Nc2ccc(Cl)nc2C(=O)O)c2nc(N3C[C@H]4CO[C@H](C4)C3)c(C#N)nc2c1 (single isomer, unassigned) [Example 243B]"
78,> 10000,2.1,"Cc1cc([C@@H](C)Nc2ccc(Cl)nc2C(=O)O)c2nc(N3CCC[C@@H]([C@H](C)O)C3)c(C#N)nc2c1 [Example 261C, 6-chloro-3-(((R)-1-(2-cyano-3-((R)-3-((S)-1-hydroxyethyl)piperidin-1-yl)-7-methylquinoxalin-5-yl)ethyl)amino)picolinic acid]"
22,7260,0.4,"Cc1cc([C@@H](C)Nc2ccc(Cl)nc2C(=O)O)c2nc(N3CCO[C@H]4C[C@H]43)c(C#N)nc2c1 (single isomer, unassigned) [Example 239B]"
62,2860,0.34,"Cc1cc([C@@H](C)Nc2ccc(Cl)nc2C(=O)O)c2nc(N3C[C@@H]4CO[C@@H](C4)C3)c(C#N)nc2c1 (single isomer, unassigned) [Example 243A]"
39,> 10000,1,"Cc1cc([C@@H](C)Nc2ccc(Cl)nc2C(=O)O)c2nc(N3CCO[C@@H]4C[C@@H]43)c(C#N)nc2c1 (single isomer, unassigned) [Example 239A]"
2.7,6800,2.6,"COC[C@H]1CN(c2nc3c([C@@H](C)Nc4ccc(Cl)nc4C(=O)O)cc(C)cc3nc2C#N)CC1(F)F (single isomer, unassigned) [Example 211B]"

# Further lines, the compound ahead of its results:
SMILES,IC50 [1] [nM],IC50 [2] [nM],IC50 [3] [nM]
"Cc1cc([C@@H](C)Nc2ccc(Cl)nc2C(=O)O)c2nc(N3CCC(N4CCCCC4=O)CC3)c(C#N)nc2c1 [Example 202, (R)-6-chloro-3-((1-(2-cyano-7-methyl-3-(2-oxo-[1,4′-bipiperidin]-1′-yl)quinoxalin-5-yl)ethyl)amino)picolinic acid]",76.4,9920,1.4
"C[C@H](Nc1ccccc1C(=O)O)c1cc(Cl)cc2nc(C#N)c(N3CCC(F)(F)CC3)nc12 [Example 29, (S)-2-((1-(7-chloro-2-cyano-3-(4,4-difluoropiperidin-1-yl)quinoxalin-5-yl)ethyl)amino)benzoic acid]",3480,> 10000,117
"Cc1cc([C@@H](C)Nc2ccc(Cl)nc2C(=O)O)c2nc(N3CC4CC(C3)C4(F)F)c(C#N)nc2c1 [Example 7, 6-chloro-3-(((1R)-1-(2-cyano-3-(6,6-difluoro-3-azabicyclo[3.1.1]heptan-3-yl)-7-methylquinoxalin-5-yl)ethyl)amino)picolinic acid]",59.8,> 10000,0.8
"Cc1cc([C@@H](C)Nc2ccc(Cl)nc2C(=O)O)c2nc(NCC3(F)CC3)c(C#N)nc2c1 [Example 23, (R)-6-chloro-3-((1-(2-cyano-3-(((1-fluorocyclopropyl)methyl)amino)-7-methylquinoxalin-5-yl)ethyl)amino)picolinic acid]",61.9,> 10000,0.7
"Cc1cc([C@@H](C)Nc2ccc(Cl)nc2C(=O)O)c2nc(N3CCC4(COC4)C3)c(C#N)nc2c1 [Example 240, (R)-6-chloro-3-((1-(2-cyano-7-methyl-3-(2-oxa-6-azaspiro[3.4]octan-6-yl)quinoxalin-5-yl)ethyl)amino)picolinic acid]",16,7990,1.6
"Cc1cc([C@@H](C)Nc2ccccc2C(=O)O)c2nc(N3CC(C)(C)C3)c(C#N)nc2c1 [Example 55, (R)-2-((1-(2-cyano-3-(3,3-dimethylazetidin-1-yl)-7-methylquinoxalin-5-yl)ethyl)amino)benzoic acid]",422,> 10000,21.6
"Cc1cc([C@@H](C)Nc2ccc(Cl)nc2C(=O)O)c2nc(N3CCC(C)(C)CC3)c(C#N)nc2c1 [Example 62, (R)-6-chloro-3-((1-(2-cyano-3-(4,4-dimethylpiperidin-1-yl)-7-methylquinoxalin-5-yl)ethyl)amino)picolinic acid]",220,7080,7.9
"Cc1cc([C@@H](C)Nc2ccc(Cl)nc2C(=O)O)c2nc(N3CCO[C@@H](C(F)(F)F)C3)c(C#N)nc2c1 [Example 190B, 6-chloro-3-(((R)-1-(2-cyano-7-methyl-3-((R)-2-(trifluoromethyl)morpholino)quinoxalin-5-yl)ethyl)amino)picolinic acid]",764,> 10000,17.3
"Cc1cc([C@@H](C)Nc2ccc(Cl)nc2C(=O)O)c2nc(N3CC4(CCCO4)C3)c(C#N)nc2c1 [Example 252, (R)-6-chloro-3-((1-(2-cyano-7-methyl-3-(5-oxa-2-azaspiro[3.4]octan-2-yl)quinoxalin-5-yl)ethyl)amino)picolinic acidS]",119,5260,2.7
"Cc1cc([C@@H](C)Nc2ccc(Cl)nc2C(=O)O)c2nc(N3CCN(c4cc(C)no4)CC3)c(C#N)nc2c1 [Example 200, (R)-6-chloro-3-((1-(2-cyano-7-methyl-3-(4-(3-methylisoxazol-5-yl)piperazin-1-yl)quinoxalin-5-yl)ethyl)amino)picolinic acid]",17.2,5470,1.2
"Cc1cc([C@@H](C)Nc2ccc(Cl)nc2C(=O)O)c2nc(N3CCCOCC3)c(C#N)nc2c1 [Example 242, (R)-6-chloro-3-((1-(2-cyano-7-methyl-3-(1,4-oxazepan-4-yl)quinoxalin-5-yl)ethyl)amino)picolinic acid]",35,8260,0.28
"Cc1cc([C@@H](C)Nc2ccc(Cl)nc2C(=O)O)c2nc(N3C[C@@H]4C[C@H]3CC4(F)F)c(C#N)nc2c1 (single isomer, unassigned) [Example 8]",34.1,3620,7.7
"Cc1cc([C@@H](C)Nc2ccc(Cl)nc2C(=O)O)c2nc(N3CCOCC3)c(C#N)nc2c1 [Example 58, (R)-6-chloro-3-((1-(2-cyano-7-methyl-3-morpholinoquinoxalin-5-yl)ethyl)amino)picolinic acid]",24,3500,1.8
"Cc1cc([C@@H](C)Nc2ccc(Cl)nc2C(=O)O)c2nc(N3CCCC(C(F)(F)F)C3)c(C#N)nc2c1 (stereo partly drawn) [Example 45, 6-chloro-3-(((1R)-1-(2-cyano-7-methyl-3-(3-(trifluoromethyl)piperidin-1-yl)quinoxalin-5-yl)ethyl)amino)picolinic acid]",115,> 10000,6.8
"Cc1cc([C@@H](C)Nc2ccc(Cl)nc2C(=O)O)c2nc(N3Cc4ccc(F)cc4C3)c(C#N)nc2c1 [Example 24, (R)-6-chloro-3-((1-(2-cyano-3-(5-fluoroisoindolin-2-yl)-7-methylquinoxalin-5-yl)ethyl)amino)picolinic acid]",44.2,> 10000,1.3
"Cc1cc([C@@H](C)Nc2ccc(Cl)nc2C(=O)O)c2nc(N3CC4CS(=O)(=O)CC4C3)c(C#N)nc2c1 (stereo partly drawn) [Example 228, 6-chloro-3-(((1R)-1-(2-cyano-3-(2,2-dioxidotetrahydro-1H-thieno[3,4-c]pyrrol-5(3H)-yl)-7-methylquinoxalin-5-yl)ethyl)amino)picolinic acid]",368,> 10000,33.2
"Cc1cc([C@@H](C)Nc2ccc(Cl)nc2C(=O)O)c2nc(N3CC4(C3)CC(F)(F)C4)c(C#N)nc2c1 [Example 255, (R)-6-chloro-3-((1-(2-cyano-3-(6,6-difluoro-2-azaspiro[3.3]heptan-2-yl)-7-methylquinoxalin-5-yl)ethyl)amino)picolinic acid]",170,> 10000,3.7
"Cc1cc([C@@H](C)Nc2ccc(Cl)nc2C(=O)O)c2nc(N3CCCC(F)(F)CC3)c(C#N)nc2c1 [Example 847, (R)-6-chloro-3-((1-(2-cyano-3-(4,4-difluoroazepan-1-yl)-7-methylquinoxalin-5-yl)ethyl)amino)picolinic acid]",59,4940,1.8
